≈ marks a conversion by molar mass, not a printed value. Where “and” joins values, the source holds several entries; their conditions need not be identical. Identical values can stand only once.
Legend:
[1] = system: G. duodenalis trophozoites; test: In vitro susceptibility, subculture in liquid medium (SCLM); format: cell-based, Giardia duodenalis (WB strain); conditions: SCLM; for IC50: Giardia duodenalis
[2] = system: G. duodenalis trophozoites; test: In vitro susceptibility, direct cell count (DCC); format: cell-based, Giardia duodenalis (WB strain); conditions: 24 h exposure
[3] = system: G. duodenalis trophozoites; test: In vitro susceptibility, trypan blue exclusion (TBE); format: cell-based, Giardia duodenalis (WB strain); conditions: 24 h exposure
Experimental: G. duodenalis trophozoites from the WB strain (ATCC # 30957) were axenically cultured in modified Diamond's TYI-S-33 medium (Keister, [1983]) without bile at 37°C. Cell harvests were carried out by chilling flasks at the log phase of growth reached after 72–96 h routine subcultures. Detached trophozoites were either directly counted in a haemocytometer or washed 3 times with phosphate buffer saline (PBS) prior to counting and the cell number was adjusted as required in the assays.
When complete TYI-S-33 medium (final cysteine concentration = 12.4 mM) was used, it was no older than 10 days to avoid cysteine oxidation. […] Parasites were harvested and counted and trophozoite's viability was determined by physiological methods to determine the growth capacity of trophozoites after drug exposure (subculture in liquid medium SCLM)] or trophozoite and membrane integrity [direct cell count (DCC) and trypan blue exclusion (TBE), respectively]. […] All these protocols have been described elsewhere (Argüello-García et al., [2004]) except that DCC values were calculated from total cell numbers of compound-exposed trophozoites divided by the initial trophozoites' inoculum (1 × 10^6) and TBE was performed by incubating PBS-washed parasites in a trypan blue solution (0.4% [w/v] final concentration) for 5 min at room temperature followed by microscopic count of “stained” (non-viable) parasites. […]

[4] = system: cysteine protease activities in trophozoite lysates; test: Proteolytic activity assay (gelatin zymogram); format: biochemical, Giardia duodenalis; conditions: 3.5 mM; bands 110, 60, 75 and 25 kDa
Experimental: Trophozoite lysates were prepared as mentioned above except that cell lysis was carried out by sonication in 1.5 mL microcentrifuge tubes under ice bath using eight 15-s pulses at 80% amplitude with resting periods of 30 s (Ultrasonic Processor mod. CV19). Protein concentration was adjusted to 2 mg/mL and aliquoted in 25 μL fractions that were incubated for 30 min room temperature with 2–5 μL stock solutions of representative TACs (ALC, DADS, and AM). The reaction mixtures were diluted in Laemmli's sample buffer, loaded in wells of 10% acrylamide-02% gelatin slab gels and these were electrophoretically analyzed using 80 V/4°C. After this, gels were incubated in a solution of triton X-100 2.5% (v/v) in water for 1 h and washed 3 times with distilled water. Bands with proteolytic activity were detected as follows: gels were incubated in acetate buffer pH 5.5 with 1 mM DTT for 16 h at 37°C under constant stirring, washed 3 times with distilled water and stained with Coomassie blue (BioRad) for 2 h at 37°C under constant stirring. Finally, gels were washed with distilled water and incubated with a solution of 5% acetic acid/40% methanol (v/v). Gel images were documented with a UVP High Performance Ultraviolet Transilluminator and software Launch DocItLS.

[5] = system: G. duodenalis trophozoites; test: Cell cycle stages, PI flow cytometry; format: cell-based, Giardia duodenalis; conditions: 24 h
Experimental: The identification and quantitative determinations of trophozoites were carried out as follows: (a) apoptosis or necrosis were determined using anti-annexin V-fluorescein isothiocyanate (FITC) antibodies or PI as respective markers, (b) oxidative stress was determined by formation of reactive oxygen species (ROS) with the fluorescent ROS-complexing agent 5-(and 6)-carboxy 2′7′-dichlorodihydrofluorescein diacetate (H2DCFDA), and (c) determination of trophozoites cell cycle stages (G1, S, G2, and G2/M) after exposure to ALC or to a control drug (albendazole, ABZ) was carried out as previously described (Martínez-Espinosa et al., [2015]). In all these assays 20,000 cells per sample were recorded.

[6] = system: Entamoeba histolytica; parameters: method as in Ankri et al., 1997; conditions: ref Ankri et al., 1997; cited from earlier work
[7] = system: Spironucleus vortens; parameters: method as in Millet et al., 2011; conditions: ref Millet et al., 2011; cited from earlier work
[8] = system: Eimeria tenella; parameters: method as in Alnassan et al., 2015; conditions: ref Alnassan et al., 2015; cited from earlier work
[9] = mouse, no reference given; cited from earlier work
[10] = system: G. duodenalis trophozoites; test: Efficacy in experimental giardiasis; conditions: for cure rate (gerbils without trophozoites): read day 13
Experimental: Eighty male Mongolian gerbils (M. unguiculatus) 6–10 weeks old, weighted 45–60 g and sentinel-checked gerbils free of intestinal parasites were kept in individual cages and distributed in 12 groups of 6 animals per treatment and experimental infections were performed as described elsewhere (Argüello-García and Ortega-Pierres, [1997]). In brief, animals were inoculated intragastrically with 1 × 10^6 G. duodenalis trophozoites in 500 μl sterile PBS per os using gavage under ether anesthesia. Control animals received 500 μl sterile PBS each. […] As additional control, one group of animals received MTZ (38.4 mg/kg at single or double dose). […] Treatment efficacy was evaluated by determining the presence or absence of trophozoites in intestinal contents of control and treated gerbils at day 13 post-infection. For this, gerbils were euthanized by an intraperitoneal injection of pentobarbital at a dose of 150 mg/kg to minimize stress and to reduce suffering, then a 10 cm-long section of intestine (from stomach ending, equivalent to nearly the entire small intestine) was excised after laparotomy, and it was longitudinally opened and rinsed in 20 mL PBS at 4°C for 20 min under shaking (720 rpm, Heidolph^TM rotatory shaker) to determine trophozoites number after parasite detachment from microvilli. Supernatant was collected and centrifuged at 750 × g for 10 min at 4°C, cell pellet was resuspended in 1 mL PBS and trophozoites were counted using a haemocytometer. Gerbils were scored as cured if no trophozoites were recovered from infected animals.

In the case of `C=CCS[S+]([O-])CC=C` (stereo not shown) [ALC, diallyl thiosulfinate], the IC50 ([1]; 24 h exposure (Figure 6B), read-out: IC50 ± SD) is reported as 0.322 ± 0.023 mM, the IC50 ([1]; 24 h exposure, read-out: IC50 (mM) ±SD) is reported as 0.32 ± 0.02 mM and the “MLC (mM) ±SD” value ([1]; 24 h exposure) is reported as 0.6 mM (≈ 97.4 µg/mL). For the same compound, the “concentration at which parasite replication was suppressed” value ([1]; 24 h exposure) was 600 µM, the “MLC (mM) ±SD” value ([1]; 24 h exposure, listed as Allicin) was 0.600 ± 0.016 mM (≈ 97.4 µg/mL) and the “MLC (mM) ±SD” value [2] was 1.08 mM (≈ 175 µg/mL). For the same compound, the “MLC (mM) ±SD” value ([2]; listed as Allicin) was 1.088 ± 0.24 mM (≈ 177 µg/mL), the IC50 ([2]; Giardia duodenalis) was 369 ± 21 µM and the “MLC (mM) ±SD” value [3] was 1.12 mM and 1.127 ± 0.05 mM. For the same compound, the IC50 ([3]; Giardia duodenalis) was 405 ± 38 µM, the “effect on proteolytic bands in zymogram” value [4] was “strongly inhibited” and the “cells at G1 phase” value ([5]; 0.6 mM) was 7.4% and 7.43%. For the same compound, the “cells at G2/M phase” value ([5]; 0.6 mM) was 4.4% and 4.44%, the “cells at G2 phase” value ([5]; 0.6 mM) was 61.0% and 61.09% and the “cells at S phase” value ([5]; 0.6 mM) was 27.03%. For the same compound, the “cells at G1 phase” value ([5]; 1.2 mM) was 2.2% and 2.22%, the “cells at G2/M phase” value ([5]; 1.2 mM) was 5.7% and 5.72% and the “cells at G2 phase” value ([5]; 1.2 mM) was 75.53%. For the same compound, the “cells at S phase” value ([5]; 1.2 mM) was 5.7% and 5.72%, the IC60 [6] was 500 µM and the IC50 [7] was > 1.12 mM. The IC99 [8] was 11.1 mM, the oral lethality [9] was 300 mg/kg and the “cure rate (gerbils without trophozoites)” value ([10]; 35 mg/kg single dose intragastric day 10 p.i.) was 3 out of 6. For the same compound, the “cure rate (gerbils without trophozoites)” value ([10]; 70 mg/kg single dose intragastric day 10 p.i.) was 5 out of 6 and 5/6, the “cure rate (gerbils without trophozoites)” value ([10]; 138 mg/kg single dose intragastric day 10 p.i.) was 6 out of 6 and 6/6 and the “cure rate (gerbils without trophozoites)” value ([10]; 276 mg/kg single dose intragastric day 10 p.i.) was 5 out of 6. The intestinal parasite numbers ([10]; increasing single doses 35-276 mg/kg, day 13 p.i.) was “progressive decrease in parasite numbers”.

— article PMC6196658, “Activity of Thioallyl Compounds From Garlic Against Giardia duodenalis Trophozoites and in Experimental Giardiasis” (Frontiers in Cellular and Infection Microbiology, 2018)
